In ChEMBL document CHEMBL1201862, “PubChem BioAssay data set” (2004):
The source made the active and inactive calls. Rule as the data show it, for most assays here: actives have a measured IC50 and inactives only a lower limit.

Experiments:
Caspase-3 = biological target: T1, Caspase-3 (Homo sapiens, UniProt P42574); assay type: functional;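 also: Dose-response selectivity test against caspase-3 for candidate inhibitors of sentrin-specific proteases (SENPs)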
T1 sequence (P42574 whole entry): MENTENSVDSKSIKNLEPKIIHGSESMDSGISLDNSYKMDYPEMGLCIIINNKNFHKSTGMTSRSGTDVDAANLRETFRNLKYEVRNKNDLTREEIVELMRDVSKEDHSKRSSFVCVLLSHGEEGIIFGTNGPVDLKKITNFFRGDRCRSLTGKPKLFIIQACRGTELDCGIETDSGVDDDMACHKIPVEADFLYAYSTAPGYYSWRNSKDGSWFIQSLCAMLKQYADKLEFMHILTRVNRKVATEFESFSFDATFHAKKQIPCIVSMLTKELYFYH

[1] = biological target: T2, Sentrin-specific protease 8 (Homo sapiens, UniProt Q96LD8); assay type: functional;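 also: luminescence read-out of SENP8 inhibition, dose-response confirmation following an ultra-high-throughput screen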
T2 sequence (Q96LD8 whole entry): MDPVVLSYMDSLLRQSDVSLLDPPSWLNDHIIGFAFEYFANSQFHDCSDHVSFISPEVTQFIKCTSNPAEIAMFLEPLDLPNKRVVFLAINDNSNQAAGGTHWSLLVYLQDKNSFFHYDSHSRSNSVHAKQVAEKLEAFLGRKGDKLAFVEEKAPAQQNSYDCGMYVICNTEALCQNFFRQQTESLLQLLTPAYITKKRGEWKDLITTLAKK

[2] = biological target: T3, Histone-lysine N-methyltransferase NSD2 (Homo sapiens, UniProt O96028); assay type: biochemical
T3 sequence (O96028 whole entry): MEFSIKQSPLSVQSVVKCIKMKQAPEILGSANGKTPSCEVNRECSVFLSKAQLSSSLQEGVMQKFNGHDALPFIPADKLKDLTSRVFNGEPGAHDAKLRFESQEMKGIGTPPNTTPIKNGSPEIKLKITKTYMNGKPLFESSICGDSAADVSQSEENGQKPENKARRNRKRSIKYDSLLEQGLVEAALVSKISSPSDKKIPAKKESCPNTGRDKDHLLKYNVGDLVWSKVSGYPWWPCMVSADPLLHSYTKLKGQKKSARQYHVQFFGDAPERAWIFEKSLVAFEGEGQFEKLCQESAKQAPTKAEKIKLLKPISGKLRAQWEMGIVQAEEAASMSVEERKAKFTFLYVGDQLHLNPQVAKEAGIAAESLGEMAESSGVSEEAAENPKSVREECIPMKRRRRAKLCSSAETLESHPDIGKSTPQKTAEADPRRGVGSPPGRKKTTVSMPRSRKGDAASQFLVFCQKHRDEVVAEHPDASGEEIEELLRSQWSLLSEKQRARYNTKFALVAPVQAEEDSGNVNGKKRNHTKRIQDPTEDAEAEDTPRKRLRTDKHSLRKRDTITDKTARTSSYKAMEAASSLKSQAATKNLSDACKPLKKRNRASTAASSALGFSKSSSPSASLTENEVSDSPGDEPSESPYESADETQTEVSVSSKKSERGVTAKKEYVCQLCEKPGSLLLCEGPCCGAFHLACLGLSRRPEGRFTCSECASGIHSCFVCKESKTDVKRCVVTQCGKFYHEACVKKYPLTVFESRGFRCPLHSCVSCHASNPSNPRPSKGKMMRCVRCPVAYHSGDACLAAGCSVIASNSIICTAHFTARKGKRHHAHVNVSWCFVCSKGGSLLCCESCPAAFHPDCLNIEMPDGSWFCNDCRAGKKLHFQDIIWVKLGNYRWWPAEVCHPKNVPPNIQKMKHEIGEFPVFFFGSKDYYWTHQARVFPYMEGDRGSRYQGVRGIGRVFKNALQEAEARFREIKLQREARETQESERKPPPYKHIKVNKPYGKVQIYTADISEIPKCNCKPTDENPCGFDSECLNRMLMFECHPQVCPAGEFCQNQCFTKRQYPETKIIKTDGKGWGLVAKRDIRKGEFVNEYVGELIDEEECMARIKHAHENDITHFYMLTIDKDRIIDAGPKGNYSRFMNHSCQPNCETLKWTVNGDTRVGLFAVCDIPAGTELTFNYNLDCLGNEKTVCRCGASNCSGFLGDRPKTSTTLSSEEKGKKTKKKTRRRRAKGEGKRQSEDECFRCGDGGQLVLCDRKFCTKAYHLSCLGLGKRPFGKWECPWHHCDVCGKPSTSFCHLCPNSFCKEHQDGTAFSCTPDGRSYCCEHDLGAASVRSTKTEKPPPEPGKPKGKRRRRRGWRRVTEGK

[3] = biological target: T4, Apoptotic protease-activating factor 1 (Homo sapiens, UniProt O14727); assay type: functional
T4 sequence (O14727 whole entry): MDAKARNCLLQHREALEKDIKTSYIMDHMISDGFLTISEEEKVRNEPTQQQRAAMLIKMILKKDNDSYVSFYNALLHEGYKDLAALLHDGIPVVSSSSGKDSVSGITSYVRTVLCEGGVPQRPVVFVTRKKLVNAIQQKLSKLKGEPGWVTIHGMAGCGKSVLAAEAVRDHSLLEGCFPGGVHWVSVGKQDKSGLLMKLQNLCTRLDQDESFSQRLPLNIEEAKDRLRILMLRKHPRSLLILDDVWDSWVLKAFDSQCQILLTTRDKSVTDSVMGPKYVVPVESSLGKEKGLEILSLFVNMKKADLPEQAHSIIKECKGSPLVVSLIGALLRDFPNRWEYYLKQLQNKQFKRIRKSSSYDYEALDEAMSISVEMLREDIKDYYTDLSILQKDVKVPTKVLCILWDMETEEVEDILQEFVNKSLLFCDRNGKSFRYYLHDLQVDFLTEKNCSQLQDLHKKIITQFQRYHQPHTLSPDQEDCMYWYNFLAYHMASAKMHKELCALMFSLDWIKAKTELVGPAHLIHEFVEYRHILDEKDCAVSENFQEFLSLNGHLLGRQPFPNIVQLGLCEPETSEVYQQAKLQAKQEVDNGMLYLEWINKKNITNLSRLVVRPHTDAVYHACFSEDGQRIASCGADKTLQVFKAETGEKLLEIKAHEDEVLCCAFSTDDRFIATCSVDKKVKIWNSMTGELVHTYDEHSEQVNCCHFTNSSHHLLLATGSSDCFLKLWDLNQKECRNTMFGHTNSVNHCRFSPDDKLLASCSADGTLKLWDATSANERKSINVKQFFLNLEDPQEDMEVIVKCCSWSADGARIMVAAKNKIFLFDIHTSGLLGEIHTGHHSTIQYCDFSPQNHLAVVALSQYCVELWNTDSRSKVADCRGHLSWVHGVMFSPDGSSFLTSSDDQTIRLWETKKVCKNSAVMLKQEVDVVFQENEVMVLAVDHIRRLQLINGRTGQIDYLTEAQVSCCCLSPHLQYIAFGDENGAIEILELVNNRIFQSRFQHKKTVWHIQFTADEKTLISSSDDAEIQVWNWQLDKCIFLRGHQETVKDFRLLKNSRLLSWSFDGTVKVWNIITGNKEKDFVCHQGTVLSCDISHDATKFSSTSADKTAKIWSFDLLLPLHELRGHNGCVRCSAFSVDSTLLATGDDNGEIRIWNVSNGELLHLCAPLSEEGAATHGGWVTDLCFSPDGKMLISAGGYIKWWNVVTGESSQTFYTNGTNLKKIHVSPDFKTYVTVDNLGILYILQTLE

AC50 [2] | Structure (SMILES) | IC50 (Caspase-3) | IC50 [1] | IC50 [3]
3.39 µM (active) | O=C(NC1(O)C(=O)c2ccccc2C1=O)c1ccc(C(F)(F)F)cc1 | 94.5 µM (active) | 4.9 µM (active) | 2.97 µM (active)
 | CCN(c1ccccc1)c1cc2ccccc2c(=O)[nH]1 | 2.69 µM (active) | 3.73 µM (active) | 18.7 µM (active)
12.5 µM (active) | O=C(COC(=O)c1ccc([N+](=O)[O-])s1)Nc1ncc(C(F)(F)F)cc1Cl | 10 µM (active) | 4.83 µM (active) | 

Structure (SMILES) | AC50 [2] | IC50 (Caspase-3) | IC50 [1] | IC50 [3]
O=C(NC1(O)C(=O)c2ccccc2C1=O)c1c(Cl)cccc1Cl | 3.16 µM (active) | > 100 µM (inactive) | 4.78 µM (active) | 2.7 µM (active)
